Like-named read-outs stand apart in the source and are kept apart here.
Columns and labels:
[1] = target: T1, 1-deoxy-D-xylulose 5-phosphate reductoisomerase (Escherichia coli, UniProt P45568); test: Enzymatic activity of yaeM gene product (NADPH decrease, absorbance at 340 nm); format: biochemical, E. coli
T1 construct: made in house; host or cells: E. coli M15/pREP4
T1 sequence (P45568 1-398 R277V/T278R/P279Q/I280L/A281P/H282T/T283P/M284W): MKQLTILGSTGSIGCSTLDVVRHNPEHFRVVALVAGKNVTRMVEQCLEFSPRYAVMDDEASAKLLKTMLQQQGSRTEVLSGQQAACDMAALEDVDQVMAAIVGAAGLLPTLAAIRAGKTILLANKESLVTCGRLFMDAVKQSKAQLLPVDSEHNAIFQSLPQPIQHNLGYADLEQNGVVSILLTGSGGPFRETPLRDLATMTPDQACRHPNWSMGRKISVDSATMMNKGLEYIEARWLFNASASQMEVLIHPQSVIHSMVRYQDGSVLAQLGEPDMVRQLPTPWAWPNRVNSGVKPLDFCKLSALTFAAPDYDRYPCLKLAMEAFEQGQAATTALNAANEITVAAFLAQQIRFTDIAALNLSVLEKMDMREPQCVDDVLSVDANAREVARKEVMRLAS
Method: (§1) […] of 1-deoxy-D-xylulose 5-phosphate (final concentration) synthesized as described above was added to 1 ml of a reaction solution containing […] Tris-hydrochloric acid (pH 7.5), […] MmCl2, […] NADPH and yaeM gene product obtained in Example 8 (2) ? , and then incubated at 37° C.
The enzymological characteristics of 1-deoxy-D-xylulose 5-phosphate reductoisomerase were examined using 1 ml of the reaction system as described in Example 8 (2) ? . Here, 1 unit is defined as the activity to oxidize 1 mmol of NADPH per a minute.

yaeM-deleted strain = test: Cell growth of yaeM-disrupted strain on LB agar with 2-C-methyl-D-erythritol; format: cell-based, E. coli; settings: 1 g/l of 2-C-methyl-D-erythritol, 37° C., 2 days
Method: (§2) The yaeM-disrupted strain produced as described above and its parent strain FS1576 were spread on LB agar medium and the same medium containing 1 g/l of 2-C-methyl-D-erythritol, then cultured at 37° C.

FS1576 = test: Cell growth of parent strain FS1576 on LB agar with 2-C-methyl-D-erythritol; format: cell-based, E. coli; settings: FS1576, 1 g/l of 2-C-methyl-D-erythritol, 37° C., 2 days
Method: as §2

[2] = target: T1, 1-deoxy-D-xylulose 5-phosphate reductoisomerase; format: biochemical, E. coli; settings: various concentrations, 37° C., FIG. 4
Method: as §1

E. coli W3110 = test: Growth of E. coli W3110 on LB agar medium containing fosmidomycin; format: cell-based; settings: 37° C., two days
Method: E. coli W3110 was spread on LB agar medium, the same medium containing 3.13 mg/l of fosmidomycin, and the same medium containing 3.13 mg/l of fosmidomycin and 0.25 g/l of 2-C-methyl-D-erythritol, then cultured at 37° C.

[3] = additive at 1 mol/l, N.D. = no activity was detected, 1 unit = activity to oxidize 1 mmol of NADPH per minute

CC(=O)[C@@H](O)[C@H](O)CO [1-deoxy-D-xylulose]
Reaction when used as substrate instead of 1-deoxy-D-xylulose 5-phosphate [1]: No reaction occurred

[Ca+2].[Cl-].[Cl-] [CaCl2]
Specific Activity [1, 3]: 0.2 units/mg protein

[Cl-].[Cl-].[Co+2] [CoCl2]
Specific Activity [1]: 6.0 units/mg protein

C[C@](O)(CO)[C@H](O)CO [ME, 2-C-methyl-D-erythritol]
Cell growth on LB + ME (yaeM-deleted strain): + | Cell growth on LB + ME (FS1576): +

[Cl-].[Cl-].[Mg+2] [MgCl2]
Specific Activity [1, 3]: 4.0 units/mg protein

[Cl][Mn][Cl] [MnCl2]
Specific Activity [1, 3]: 11.8 units/mg protein

NC(=O)C1=CN([C@@H]2O[C@H](COP(=O)(O)OP(=O)(O)OC[C@H]3O[C@@H](n4cnc5c(N)ncnc54)[C@H](O)[C@@H]3O)[C@@H](O)[C@H]2O)C=CC1 [NADH]
Activity when NADPH was replaced with NADH ([1]; relative to activity with NADPH): below 1/100

NC(=O)c1ccc[n+]([C@@H]2O[C@H](COP(=O)([O-])OP(=O)(O)OC[C@H]3O[C@@H](n4cnc5c(N)ncnc54)[C@H](OP(=O)(O)O)[C@@H]3O)[C@@H](O)[C@H]2O)c1 [NADP]
Km ([1]; in the presence of MnCl2): 7.4 µM

O=S(=O)([O-])[O-].[Ni+2] [NiSO4]
Specific Activity [1, 3]: 0.2 units/mg protein

O=S(=O)([O-])[O-].[Zn+2] [ZnSO4]
Specific Activity [1, 3]: 0.3 units/mg protein

O=CN(O)CCCP(=O)(O)O [fosmidomycin, 3-(N-formyl-N-hydroxyamino)propylphosphonic acid]
Inhibition of 1-deoxy-D-xylulose 5-phosphate reductoisomerase [2]: inhibit | Growth of the microorganism on LB agar medium (E. coli W3110; 3.13 mg/l of fosmidomycin and 0.25 g/l of 2-C-methyl-D-erythritol): could grow | Growth of the microorganism on LB agar medium (E. coli W3110; 3.13 mg/l of fosmidomycin only): no microorganism grew
